Test results published in patent publication US20260223850A1, “SUBSTITUTED PYRROLIDONE COMPOUND, PREPARATION METHOD THEREFOR, COMPOSITION AND APPLICATION THEREOF” (QINGDAO KINGAGROOT CHEMICAL COMPOUND CO., LTD., priority 2023, published 2026).

Key:
Assay type in all cases: in vivo
Leptochloa chinensis = experiment: Seedling stage sealing experiment for water-seeding; settings: 120 g a.i./ha, 15 days, fresh weight control rate
Text: (1) Seedling Stage Sealing Experiment for Water-Seeding:
The activity level criteria for plant damage (i.e., growth control rate) are as follows: • Level 9: completely dead; • Level 8: growth control rate greater than or equal to 90% and less than 100%; • Level 7: growth control rate greater than or equal to 80% and less than 90%; • Level 6: growth control rate greater than or equal to 70% and less than 80%; • Level 5: growth control rate greater than or equal to 50% and less than 70%; • Level 4: growth control rate greater than or equal to 30% and less than 50%; • Level 3: growth control rate greater than or equal to 20% and less than 30%; • Level 2: growth control rate greater than or equal to 10% and less than 20%; • Level 1: growth control rate less than 10%; • Level 0: no effect.
The above growth control rates are fresh weight control rates.
Echinochloa phyllopogon, Digitaria sanguinalis, Huaidao (rice cultivar), etc. were broadcasted on the surface of nutrition bowls filled with soil and fully covered by soil. The foregoing well-prepared nutrition bowls were then placed in a cultivation box with water filled to a suitable height to keep the soil in the nutrition bowls moist. A test compound of the present invention was individually dissolved with acetone, then diluted into solution of a certain concentration using a certain amount of water, and sprayed using a spray tower. The plants were placed on a greenhouse seedbed and cultured for 15 days, and the experimental results were then collected. The compound was applied at 120, 60, 30 and 15 g a.i./ha in triplicate, and the results were averaged.

Echinochloa crusgalli = experiment: as above; settings: 120 g a.i./ha, 15 days, fresh weight control rate
Echinochloa phyllopogon = experiment: as above; settings: 120 g a.i./ha, 15 days, fresh weight control rate
How it was run: (§1)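 Grades run from 0 (no effect) to 9 (completely dead), each band set by percent fresh-weight growth control. Application by spray tower at 120, 60, 30 and 15 g a.i./ha in triplicate; evaluated after 15 days of greenhouse culture.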

Huaidao (rice cultivar) = experiment: Seedling stage sealing experiment for water-seeding (crop safety); settings: 120 g a.i./ha, 15 days, fresh weight control rate; for Huaidao (rice cultivar) plant damage level (growth control rate): spray, seedling stage sealing for water-seeding
How it was run: as §1

[1] = spray, seedling stage sealing for water-seeding

SMILES	Leptochloa chinensis activity level (growth control rate) (Leptochloa chinensis)	Echinochloa crusgalli activity level (growth control rate) (Echinochloa crusgalli; seedling stage sealing)	Echinochloa phyllopogon activity level (growth control rate) (Echinochloa phyllopogon; [1])	Echinochloa crusgalli activity level (growth control rate) (Echinochloa crusgalli; [1])	Huaidao (rice cultivar) plant damage level (growth control rate) (Huaidao (rice cultivar))	Echinochloa phyllopogon activity level (growth control rate) (Echinochloa phyllopogon; seedling stage sealing)	Huaidao (rice cultivar) plant damage level (Huaidao (rice cultivar); seedling stage sealing)
CN1C[C@H](c2cccc(Oc3ccccc3)c2)[C@@H](C(=O)Nc2cnn(C)c2Cl)C1=O [50′]	6 (Level 6: growth control rate greater than or equal to 70% and less than 80%)						
C=Cc1cccc([C@H]2CN(C)C(=O)[C@@H]2C(=O)Nc2cnn(C)c2Cl)c1 [149′]	5 (Level 5: growth control rate greater than or equal to 50% and less than 70%)	5 (Level 5: growth control rate greater than or equal to 50% and less than 70%)					
CN1C[C@H](c2cccc(C(F)(F)F)c2)[C@@H](C(=O)Nc2cnn(C(C)(C)C)c2Cl)C1=O [157′]	7 (Level 7: growth control rate greater than or equal to 80% and less than 90%)	5 (Level 5: growth control rate greater than or equal to 50% and less than 70%)					
CN1C[C@H](c2cccc(C(F)(F)F)c2)[C@@H](C(=O)Nc2cnn(CC3CC3)c2Cl)C1=O [165′]	6 (Level 6: growth control rate greater than or equal to 70% and less than 80%)						
COc1cc(OC)cc([C@H]2CN(C)C(=O)[C@@H]2C(=O)Nc2cnn(C)c2C2CC2)c1 [301′]	6 (Level 6: growth control rate greater than or equal to 70% and less than 80%)						
COc1cc([C@H]2CN(C)C(=O)[C@@H]2C(=O)Nc2cnn(C)c2Cl)ccc1C(F)(F)F [316′]	6 (Level 6: growth control rate greater than or equal to 70% and less than 80%)	6 (Level 6: growth control rate greater than or equal to 70% and less than 80%)					
Cc1cc(C)cc([C@H]2CN(C)C(=O)[C@@H]2C(=O)Nc2cnn(C)c2CF)c1 [495′]			7 (Level 7: growth control rate greater than or equal to 80% and less than 90%)	9	0		
C=Cc1c(NC(=O)[C@H]2C(=O)N(C)C[C@@H]2c2cc(C)cc(C)c2)cnn1C(F)F [496′]			9	9	0		
Cc1cc(C)cc([C@H]2CN(C)C(=O)[C@@H]2C(=O)Nc2cnn(C)c2S(C)(=O)=O)c1 [498′]			9	9	0		
CO/N=C/c1c(NC(=O)[C@H]2C(=O)N(C)C[C@@H]2c2cc(C)cc(C)c2)cnn1C [501′]			7 (Level 7: growth control rate greater than or equal to 80% and less than 90%)	9	0		
Cc1cc(C)cc([C@H]2CN(C)C(=O)[C@@H]2C(=O)Nc2cnn(C)c2CO)c1 [502′]			7 (Level 7: growth control rate greater than or equal to 80% and less than 90%)	9	0		
Cc1cc(Cl)cc([C@H]2CN(C)C(=O)[C@@H]2C(=O)Nc2cnn(C(F)F)c2Cl)c1 [505′]			9	9	2 (Level 2: growth control rate greater than or equal to 10% and less than 20%)		
Cc1cc(Cl)cc([C@H]2CN(C)C(=O)[C@@H]2C(=O)Nc2cnn(C)c2C2CC2)c1 [506′]			9	9	0		
CN1C[C@H](c2cc(F)cc(Cl)c2)[C@@H](C(=O)Nc2cnn(C)c2Cl)C1=O [507′]			9	9	0		
CN1C[C@H](c2cc(C(F)(F)F)cc(C(F)(F)F)c2)[C@@H](C(=O)Nc2cnn(C)c2C2CC2)C1=O [510′]			9	9	2 (Level 2: growth control rate greater than or equal to 10% and less than 20%)		
CN1C[C@H](c2cc(Br)cc(C(F)F)c2)[C@@H](C(=O)Nc2cnn(C)c2Cl)C1=O [511′]			6 (Level 6: growth control rate greater than or equal to 70% and less than 80%)	9	0		
CN1C[C@H](c2cc(Br)cc(C(F)F)c2)[C@@H](C(=O)Nc2cnn(C(F)F)c2Cl)C1=O [512′]			7 (Level 7: growth control rate greater than or equal to 80% and less than 90%)	9	0		
CN1C[C@H](c2cc(Br)cc(C(F)(F)F)c2)[C@@H](C(=O)Nc2cnn(C)c2C2CC2)C1=O [514′]			6 (Level 6: growth control rate greater than or equal to 70% and less than 80%)	9	0		
Cc1cc([C@H]2CN(C)C(=O)[C@@H]2C(=O)Nc2cnn(C)c2Br)cc(C)c1C [516′]			9	9	0		
Cc1cc([C@H]2CN(C)C(=O)[C@@H]2C(=O)Nc2cnn(C)c2C#N)cc(C)c1C [518′]			9	9	0		
CN1C[C@H](c2cc(Cl)cc(Cl)c2)[C@@H](C(=O)Nc2cnn(C)c2Cl)C1=O [519′]			9	9	1 (Level 1: growth control rate less than 10%)		
Cc1csc([C@H]2CN(C)C(=O)[C@@H]2C(=O)Nc2cnn(C)c2Cl)c1 [520′]			7 (Level 7: growth control rate greater than or equal to 80% and less than 90%)	9	0		
CN1CC(c2cccc(OCC3CC3)c2)C(C(=O)Nc2cnn(C)c2Cl)C1=O (stereo not drawn) [Compound 39]	9	6 (Level 6: growth control rate greater than or equal to 70% and less than 80%)					
CN1CC(c2cccc(OC3CCCC3)c2)C(C(=O)Nc2cnn(C)c2Cl)C1=O (stereo not drawn) [Compound 41]	6 (Level 6: growth control rate greater than or equal to 70% and less than 80%)	5 (Level 5: growth control rate greater than or equal to 50% and less than 70%)					
CN1CC(c2cccc(C(F)(F)F)c2)C(C(=O)Nc2c(Cl)nn(C)c2Cl)C1=O (stereo not drawn) [Compound 94]		5 (Level 5: growth control rate greater than or equal to 50% and less than 70%)				5 (Level 5: growth control rate greater than or equal to 50% and less than 70%)	0
Cn1ncc(NC(=O)C2C(=O)NCC2c2cccc(C(F)(F)F)c2)c1Cl (stereo not drawn) [Compound 100]	6 (Level 6: growth control rate greater than or equal to 70% and less than 80%)	6 (Level 6: growth control rate greater than or equal to 70% and less than 80%)					
Cc1cc(C2CN(C)C(=O)C2C(=O)Nc2cnn(C)c2C(F)(F)F)cc(C)c1C (stereo not drawn) [Compound 517]			9	9	0		
